Data reported in US10968248B2, “Trinucleotide mRNA cap analogs” (c/o Arcturus Therapeutics, Inc., priority 2016, dated 2021).

Experiments:
[1] = Protein expression in plasma (ELISA) after i.v. delivery of m^7G(5′)p3-RNA to mice; type: in vivo
T7 RNA polymerase = T7 RNA polymerase (Escherichia phage T7, UniProt P00573); settings: 2 hrs at 37 C, concluded from protein expression in mice
Protocol: For ARCA and ARC CAP1 mRNAs, in vitro transcription was performed using the standard protocol (see Table, below). All of components were mixed, and T7 RNA polymerase (E2040 from NEB) was added in the reaction mixture. The transcription reaction was incubated for 2 hrs at 37 C. After 2 hrs of reaction time, DNASEI (NEB) and buffer were added to the transcription reaction and incubated for 15 mins at 37 C. The crude of reaction mix was purified using RNA purification kit (Macherey-Nagel).

[2] = system: rabbit reticulocyte lysate system; settings: mRNA transcribed with the cap analog; cited from earlier work
[3] = in vitro transcription initiated with the cap analog; cited from earlier work

Sequence of T7 RNA polymerase (P00573 whole entry): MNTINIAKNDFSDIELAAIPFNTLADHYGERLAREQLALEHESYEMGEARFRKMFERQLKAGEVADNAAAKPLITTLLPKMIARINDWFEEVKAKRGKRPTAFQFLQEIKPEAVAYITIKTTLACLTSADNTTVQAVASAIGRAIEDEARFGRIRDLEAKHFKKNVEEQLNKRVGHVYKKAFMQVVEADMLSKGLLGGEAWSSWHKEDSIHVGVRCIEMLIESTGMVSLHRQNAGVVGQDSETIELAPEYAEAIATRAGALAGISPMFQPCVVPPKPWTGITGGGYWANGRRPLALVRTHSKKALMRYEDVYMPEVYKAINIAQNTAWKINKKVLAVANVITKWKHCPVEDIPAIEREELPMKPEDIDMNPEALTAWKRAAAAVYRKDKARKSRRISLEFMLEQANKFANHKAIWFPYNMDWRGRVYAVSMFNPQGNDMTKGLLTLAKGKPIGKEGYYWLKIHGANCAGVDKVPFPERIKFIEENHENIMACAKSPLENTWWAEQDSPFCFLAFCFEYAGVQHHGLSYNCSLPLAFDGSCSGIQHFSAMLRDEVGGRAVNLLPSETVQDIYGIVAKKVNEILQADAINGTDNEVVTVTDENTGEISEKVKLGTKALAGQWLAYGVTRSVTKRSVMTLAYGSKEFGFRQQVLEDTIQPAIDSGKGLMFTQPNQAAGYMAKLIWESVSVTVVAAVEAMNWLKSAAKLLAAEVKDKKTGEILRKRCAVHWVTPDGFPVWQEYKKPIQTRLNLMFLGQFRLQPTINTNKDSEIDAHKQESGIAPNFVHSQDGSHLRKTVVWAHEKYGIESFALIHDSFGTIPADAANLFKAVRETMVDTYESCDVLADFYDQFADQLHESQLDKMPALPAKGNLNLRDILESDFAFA

| Structure (SMILES) | efficiency of translation of capped RNA ([1]; compared with enzymatically (vaccinia) capped RNA) | amount of protein expression ([1]; m^7G(5′)p3-RNA 0.3 mg/kg i.v., male mice, plasma 6 hours post dose, ELISA, FIG. 16) | efficiency of transcription (T7 RNA polymerase) | translational efficiency (rank order of cap structures) [2] | caps oriented in the reverse direction / reverse-orientation transcript [3] |
| --- | --- | --- | --- | --- | --- |
| CO[C@@H]1[C@H](OP(=O)(O)OC[C@H]2O[C@@H](n3cnc4c(=O)[nH]c(N)nc43)[C@H](O)[C@@H]2O)[C@@H](COP(=O)(O)OP(=O)(O)OP(=O)([O-])OC[C@H]2O[C@@H]([n+]3cn(C)c4c(=O)[nH]c(N)nc43)[C@H](O)[C@@H]2O)O[C@H]1n1cnc2c(N)ncnc21 [ARC CAP1, m^7G(5′)p3AmpG] | just as efficient translated as enzymatically capped RNA | greater than ARCA | substantially improved compared to dinucleotide ARCA | greatest |  |
| Cn1c[n+]([C@@H]2O[C@H](COP(=O)(O)OP(=O)([O-])OP(=O)(O)OC[C@H]3O[C@@H](n4cnc5c(=O)[nH]c(N)nc54)[C@H](O)[C@@H]3O)[C@@H](O)[C@H]2O)c2nc(N)[nH]c(=O)c21 [m^7G(5′)p3(5′)G] |  |  |  |  | one third to one half of the caps oriented in the reverse direction |
| CO[C@H]1[C@@H](O)[C@H](n2c[n+](C)c3c(=O)[nH]c(N)nc32)O[C@@H]1COP(=O)(O)OP(=O)(O)OP(=O)(O)OC[C@H]1O[C@@H](n2cnc3c(=O)[nH]c(N)nc32)[C@H](O)[C@@H]1O [ARCA, 3′-OMe-m^7G(5′)p3G] |  |  |  |  | without reversal |
